# Reference: US20130065818A1, “Arylamide Compounds And Compositions And Uses Thereof” (POLYMEDIX, priority 2006, published 2013)
# Columns and labels:
# Experiment in all cases: MIC, 25 ocular isolates, broth microdilution (Example 8)
# Assay type in all cases: cell-based
# [1] = tested on: Staphylococcus aureus fluoroquinolone-susceptible; design: Mean MIC (Descriptive Statistics) / Minimum MIC (Descriptive Statistics) / Maximum MIC (Descriptive Statistics): unit: µg/mL; conditions: 25 isolates
# Experimental: (§1) • Mueller-Hinton Broth in tubes was inoculated with 25 ocular isolates of Staphylococcus aureus fluoroquinolone-susceptible, Staphylococcus aureus fluoroquinolone-resistant, Staphylococcus epidermidis (Coagulase-negative Staphylococcus) fluoroquinolone-susceptible, Staphylococcus epidermidis (Coagulase-negative Staphylococcus) fluoroquinolone-resistant, Pseudomonas aeruginosa and Serratia marcescens, plus two controls (Staphylococcus aureus and E. coli) and incubated at 37° C. overnight on a shaker set at 250 rpm.
# (§2) On the day of testing, a 640 μg/ml (1280 μg/ml for Serratia marcescens and Pseudomonas aeruginosa) concentration was prepared from a 1% stock solution in 0.01% acetic acid, 0.2% BSA in polypropylene tubes.
# (§3) Serial doubling dilutions in 0.01% acetic acid, 0.2% BSA in 96 well polypropylene plates, which are used as reservoirs for the inoculation of the test plates, were carried out to obtain serial dilutions of test agents at 10 times the required test concentrations: 640, 320, 160, 80, 40, 20, 10, 5, 2.5, 1.25, and 0.625 μg/ml (1280, 640, 320, 160, 80, 40, 20, 10, 5, 2.5, and 1.25 μg/ml for Serratia marcescens and Pseudomonas aeruginosa).
# (§4) Ten μl of diluted 10×test agents was added to each well of one row of the 96 well polypropylene plates from column 2 to column 12 (column 1 is a control for bacteria alone, with no peptide). Test agent concentrations in columns 2-12 were as follows: 64, 32, 16, 8, 4, 2, 1, 0.5, 0.25, 0.125, and 0.0625 μg/ml (128, 64, 32, 16, 8, 4, 2, 1, 0.5, 0.25, and 0.125 μg/ml for Serratia marcescens and Pseudomonas aeruginosa). The same peptide was in each of the 8 rows. One plate contained dilutions of one test agent and 8 bacterial isolates.
# (§5) On the day of testing, the overnight bacterial broth cultures of Staphylococcus aureus fluoroquinolone-susceptible, Staphylococcus aureus fluoroquinolone-resistant, Staphylococcus epidermidis (Coagulase-negative Staphylococcus) fluoroquinolone-susceptible, Staphylococcus epidermidis (Coagulase-negative Staphylococcus) fluoroquinolone-resistant, Serratia marcescens, and Pseudomonas aeruginosa, plus two controls (Staphylococcus aureus and E. coli) were diluted in 5 ml of trypticase soy broth to yield turbidity equal to a 0.5 McFarland standard. The final inoculum for MIC testing for Staphylococcus aureus fluoroquinolone-susceptible, Staphylococcus aureus fluoroquinolone-resistant, Staphylococcus epidermidis (Coagulase-negative Staphylococcus) fluoroquinolone-susceptible, Staphylococcus epidermidis (Coagulase-negative Staphylococcus) fluoroquinolone-resistant, Serratia marcescens, and Pseudomonas aeruginosa was achieved by placing 0.05 ml of the turbidity adjusted sample to 5 ml of Mueller-Hinton broth.
# (§6) Ninety μl of the bacterial suspensions was dispensed in each well from column 1 to column 12. Each bacterial isolate was placed in one row of a 96 well polypropylene plate containing the test agents. The plates were placed on shaker at 15 minutes at room temperature, and then incubated at 37° C. overnight. MICs were determined visually as the lowest concentration of drug that inhibits visible bacterial growth.
# Pseudomonas aeruginosa = conditions: 25 isolates; >128 was Replaced with 256
# Experimental: as §1, §2, §3, §4, §5, §6
# [2] = tested on: Staphylococcus aureus fluoroquinolone-resistant; conditions: 25 isolates
# Experimental: as §1, §2, §3, §4, §5, §6
# [3] = tested on: Staphylococcus epidermidis (Coagulase-negative Staphylococcus) fluoroquinolone-susceptible; conditions: 25 isolates; <0.0625 was Replaced with 0.03125
# Experimental: as §1, §2, §3, §4, §5, §6
# Serratia marcescens = conditions: 25 isolates; >128 was Replaced with 256
# Experimental: as §1, §2, §3, §4, §5, §6
# [4] = tested on: Staphylococcus epidermidis (Coagulase-negative Staphylococcus) fluoroquinolone-resistant; conditions: 25 isolates; <0.0625 was Replaced with 0.03125
# Experimental: as §1, §2, §3, §4, §5, §6
# [5] = tested on: Moraxella species (including Moraxella catarrhalis)
# Experimental: (§7) Mueller-Hinton Broth supplemented with 2% lysed horse blood in tubes was inoculated with 25 ocular isolates of Streptococcus pneumoniae, Streptococcus viridans group, and Moraxella species (including Moraxella catarrhalis) plus two controls (Staphylococcus aureus and E. coli) and incubated at 37° C. overnight. Additionally, Mueller-Hinton Broth in tubes was inoculated with two controls (Staphylococcus aureus and E. coli) and incubated at 37° C. overnight on a shaker set at 250 rpm.
# as §2, §3, §4
# (§8) On the day of testing, the overnight bacterial broth cultures of Streptococcus pneumoniae, Streptococcus viridans and Moraxella species (including Moraxella catarrhalis) plus two controls (Staphylococcus aureus and E. coli) were diluted in 5 ml of trypticase soy broth to yield turbidity equal to a 0.5 McFarland standard. The final inoculum for MIC testing for Streptococcus pneumoniae, Streptococcus viridans and Moraxella species (including Moraxella catarrhalis) was achieved by placing 0.1 ml of the turbidity adjusted sample to 5 ml of Mueller-Hinton broth containing 2% lysed horse red blood cells.
# as §6
# [6] = tested on: Streptococcus viridans group; conditions: 25 isolates; >64 was Replaced with 128
# Experimental: as §7, §2, §3, §4, §8, §6
# Streptococcus pneumoniae = conditions: 25 isolates; >64 was Replaced with 128
# Experimental: as §7, §2, §3, §4, §8, §6
# Haemophilus influenzae = tested on: Haemophilus influenzae
# Experimental: HTM (Haemophilus Test Medium) in tubes was inoculated with 25 ocular isolates of Haemophilus influenzae plus two controls (Staphylococcus aureus and E. coli) and incubated at 37° C. overnight. Additionally, Mueller-Hinton Broth in tubes was inoculated with two controls (Staphylococcus aureus and E. coli) and incubated at 37° C. overnight on a shaker set at 250 rpm.
# as §2, §3, §4
# On the day of testing, the overnight bacterial broth cultures of Haemophilus species was diluted in 5 ml of trypticase soy broth to yield turbidity equal to a 0.5 McFarland standard. The final inoculum for MIC testing for Haemophilus species was achieved by placing 0.1 ml of the turbidity adjusted sample to 5 ml of HTM medium.
# as §6
# [7] = descriptive statistics, n=25, >64 replaced with 128
# [8] = n=25 isolates, >64 replaced with 128
smiles,measurement,setting,value
N=C(N)NCCCCC(=O)Nc1cc(C(F)(F)F)cc(NC(=O)c2cc(C(=O)Nc3cc(C(F)(F)F)cc(NC(=O)CCCCNC(=N)N)c3O[C@@H]3CCNC3)ncn2)c1O[C@@H]1CCNC1 [Olig 4],Maximum MIC (Descriptive Statistics),[1],0.5000
same,Mean MIC (Descriptive Statistics),[1],0.2850
same,Median MIC (Descriptive Statistics / Mann-Whitney),[1],0.2500
same,Minimum MIC (Descriptive Statistics),[1],0.1250
same,Maximum MIC (Descriptive Statistics),Pseudomonas aeruginosa,8 µg/mL
same,Mean MIC (Descriptive Statistics),Pseudomonas aeruginosa,3.54 µg/mL
same,Median MIC (Descriptive Statistics / Mann-Whitney),Pseudomonas aeruginosa,4.00
same,Minimum MIC (Descriptive Statistics),Pseudomonas aeruginosa,0.5 µg/mL
same,Maximum MIC (Descriptive Statistics),[2],1.0000
same,Mean MIC (Descriptive Statistics),[2],0.3200
same,Median MIC (Descriptive Statistics / Mann-Whitney),[2],0.2500
same,Minimum MIC (Descriptive Statistics),[2],0.1250
same,Maximum MIC (Descriptive Statistics),[3],0.2500
same,Mean MIC (Descriptive Statistics),[3],0.1388
same,Median MIC (Descriptive Statistics / Mann-Whitney),[3],0.125
same,Minimum MIC (Descriptive Statistics),[3],0.0313
same,Maximum MIC (Descriptive Statistics),Serratia marcescens,32 µg/mL
same,Mean MIC (Descriptive Statistics),Serratia marcescens,12.4 µg/mL
same,Median MIC (Descriptive Statistics / Mann-Whitney),Serratia marcescens,8.00
same,Minimum MIC (Descriptive Statistics),Serratia marcescens,0.25 µg/mL
same,Maximum MIC (Descriptive Statistics),[4],0.2500
same,Mean MIC (Descriptive Statistics),[4],0.1300
same,Median MIC (Descriptive Statistics / Mann-Whitney),[4],0.125
same,Minimum MIC (Descriptive Statistics),[4],0.0313
same,Minimum MIC,"[5]; descriptive statistics, n=25",0.50 µg/mL
same,Maximum MIC,[5]; [7],128.00 µg/mL
same,Mean MIC,[5]; [7],21.42 µg/mL
same,Median MIC,[5]; [8],4.00 µg/mL
same,Maximum MIC (Descriptive Statistics),[6],32 µg/mL
same,Mean MIC (Descriptive Statistics),[6],5.84 µg/mL
same,Median MIC (Descriptive Statistics / Mann-Whitney),[6],4.00
same,Minimum MIC (Descriptive Statistics),[6],1 µg/mL
same,Maximum MIC (Descriptive Statistics),Streptococcus pneumoniae,128 µg/mL
same,Mean MIC (Descriptive Statistics),Streptococcus pneumoniae,6.08 µg/mL
same,Median MIC (Descriptive Statistics / Mann-Whitney),Streptococcus pneumoniae,1.00
same,Minimum MIC (Descriptive Statistics),Streptococcus pneumoniae,0.5 µg/mL
same,Minimum MIC,"Haemophilus influenzae; descriptive statistics, n=25",2.00 µg/mL
same,Maximum MIC,Haemophilus influenzae; [7],32.00 µg/mL
same,Mean MIC,Haemophilus influenzae; [7],8.56 µg/mL
same,Median MIC,Haemophilus influenzae; [8],8.00 µg/mL
